# Data as given in patent EP3722296B1, “DIHYDRONAPHTHYRIDINES AND RELATED COMPOUNDS USEFUL AS KINASE INHIBITORS FOR THE TREATMENT OF PROLIFERATIVE DISEASES” (Deciphera Pharmaceuticals, LLC, priority 2012, dated 2013).
# Tests used:
# Phospho-KIT (Tyr719) [1] = target: T1, Phospho-KIT (Tyr719) (Homo sapiens, UniProt P10721, K642E); experiment: GIST882 KIT Western Blot; type: cell-based; settings: GIST882 cells, 4 hours, serum-free medium; read-out: pKIT suppression by western blot analysi GIST 882
# T1 construct: endogenous in cells; host or cells: GIST882
# Summary of the method: (§1)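 Phospho-KIT (Tyr719) was immunoblotted on PVDF and imaged in fluorescence mode after ECL Plus, with stripping and reprobing for total KIT. IC50 values were derived from the blot signals.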
# Phospho-KIT (Tyr719) [2] = experiment: GIST48 KIT Western Blot; type: cell-based; settings: GIST48 cells, 4 hours, serum-free medium; read-out: pKIT suppression by western blot analysi GIST48
# Summary of the method: as §1
# Phospho-KIT (Tyr719) [3] = experiment: GIST430 KIT Western Blot; type: cell-based; settings: GIST430 cells, 4 hours, serum-free medium; read-out: pKIT suppression by western blot analysi GIST430
# Summary of the method: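 GIST430 cells were compound-treated in serum-free Ham's F10, then lysed. Phospho-KIT (Tyr719) was measured by western blot with fluorescence-mode ECL, and blots were reprobed for total KIT; IC50 derived from concentration response.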
# c-KIT V654A kinase = target: T2, c-KIT V654A kinase (Homo sapiens, UniProt P10721, V654A); experiment: c-KIT V654A Kinase Assay; type: biochemical; settings: enzymatic assay, ATP 200 µM
# T2 construct: residues T544-V976 with N-terminal GST fusion; purchased deCODE Biostructures
# Summary of the method: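 Kinase activity tracked by coupled NADH consumption, monitored continuously at 340 nm over 6 h at 30 °C after serially diluted compound was mixed in to start inhibition. Enzyme used was a GST-fused, N-terminally tagged cKIT T544–V976 construct with a TEV cleavage site.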
# c-KIT D816H kinase = target: T3, c-KIT D816H kinase (Homo sapiens, UniProt P10721, D816H); experiment: c-KIT D816H Kinase Assay; type: biochemical; settings: enzymatic assay, ATP 200 µM
# T3 construct: The construct contains residues T544-V976 of cKit; GST (N); TEV cleavage site (internal); purchased deCODE Biostructures
# Summary of the method: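 Mutant cKit enzyme, expressed as a GST-fusion construct carrying an N-terminal tag and TEV site, was mixed with serially diluted compound to start reactions. Activity tracked via NADH consumption, read continuously at 340 nm over 6 hours at 30 °C.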
# c-KIT kinase = c-KIT kinase (Homo sapiens, UniProt P10721); experiment: c-KIT kinase Assay; type: biochemical; parameters: cKIT residues T544-V976; GST (N); TEV cleavage site (internal); purchased deCODE Biostructures; settings: enzymatic assay, ATP 200 µM; read-out: KIT (wt) IC50
# Summary of the method: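 This continuous spectrophotometric assay tracked c-KIT kinase turnover through NADH consumption at 340 nm, recorded for 2 hours at 30 °C. The enzyme construct from deCODE Biostructures carried an N-terminal tag, a GST-fusion sequence and a TEV cleavage site. Percent inhibition came from reaction rates over 0 to 1 h relative to a no-compound control, and IC50 values were derived with GraphPad Prism.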
# T2 sequence (P10721 544-976 V654A): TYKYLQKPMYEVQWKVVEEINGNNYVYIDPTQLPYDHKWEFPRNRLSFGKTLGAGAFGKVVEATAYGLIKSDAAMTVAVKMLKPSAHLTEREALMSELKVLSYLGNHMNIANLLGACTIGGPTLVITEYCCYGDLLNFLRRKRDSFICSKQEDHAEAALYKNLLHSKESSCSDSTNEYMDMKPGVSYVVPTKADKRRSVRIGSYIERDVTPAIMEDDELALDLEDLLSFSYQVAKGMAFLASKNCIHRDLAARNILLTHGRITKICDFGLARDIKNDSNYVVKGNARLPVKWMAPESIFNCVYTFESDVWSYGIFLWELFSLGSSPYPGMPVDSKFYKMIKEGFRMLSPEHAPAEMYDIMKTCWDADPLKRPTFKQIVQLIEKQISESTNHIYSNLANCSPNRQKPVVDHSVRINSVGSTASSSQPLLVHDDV
# Sequence of c-KIT kinase (P10721 544-976): as the sequence (P10721 544-976 V654A) above, with A111V counted along it
# T3 sequence (P10721 544-976 D816H): as the sequence (P10721 544-976 V654A) above, with A111V, D273H counted along it
# T1 sequence (P10721 26-976 K642E): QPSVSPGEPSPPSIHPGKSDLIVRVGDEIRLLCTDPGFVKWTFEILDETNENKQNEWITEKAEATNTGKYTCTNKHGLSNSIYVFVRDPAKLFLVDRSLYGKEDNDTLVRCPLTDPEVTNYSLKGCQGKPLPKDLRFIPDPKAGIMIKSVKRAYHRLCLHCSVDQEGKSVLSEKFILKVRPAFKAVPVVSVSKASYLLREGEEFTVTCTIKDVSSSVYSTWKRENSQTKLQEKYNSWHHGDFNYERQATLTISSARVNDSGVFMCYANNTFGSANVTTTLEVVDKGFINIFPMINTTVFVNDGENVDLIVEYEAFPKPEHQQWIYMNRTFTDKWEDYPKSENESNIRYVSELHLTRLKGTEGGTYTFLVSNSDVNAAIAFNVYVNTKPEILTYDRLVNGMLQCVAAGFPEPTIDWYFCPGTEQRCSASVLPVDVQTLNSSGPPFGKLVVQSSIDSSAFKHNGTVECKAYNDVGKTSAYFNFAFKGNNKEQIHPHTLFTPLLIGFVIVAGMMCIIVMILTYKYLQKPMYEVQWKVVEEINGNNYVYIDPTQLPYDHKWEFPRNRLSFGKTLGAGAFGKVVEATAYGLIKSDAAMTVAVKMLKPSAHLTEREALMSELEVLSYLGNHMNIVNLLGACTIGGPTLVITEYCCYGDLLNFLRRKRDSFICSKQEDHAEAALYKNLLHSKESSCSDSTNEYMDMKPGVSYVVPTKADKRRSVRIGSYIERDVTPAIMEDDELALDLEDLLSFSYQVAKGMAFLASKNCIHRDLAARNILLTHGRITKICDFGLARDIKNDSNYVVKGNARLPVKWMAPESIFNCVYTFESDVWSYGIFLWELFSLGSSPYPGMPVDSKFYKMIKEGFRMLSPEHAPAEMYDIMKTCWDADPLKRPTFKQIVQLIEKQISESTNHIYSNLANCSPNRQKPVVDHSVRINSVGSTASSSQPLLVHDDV
IC50 (Phospho-KIT (Tyr719) [1]) [nM],IC50 (Phospho-KIT (Tyr719) [2]) [nM],IC50 (Phospho-KIT (Tyr719) [3]) [nM],IC50 (c-KIT V654A kinase) [nM],IC50 (c-KIT D816H kinase) [nM],IC50 (c-KIT kinase) [nM],Compound
10 to 100,100 to 1000,10 to 100,10 to 100,< 10,< 10,"CCn1c(=O)c(-c2cc(NC(=O)Nc3cccc(F)c3)c(F)cc2Cl)cc2cnc(N)cc21 [Example 20, 1-(5-(7-amino-1-ethyl-2-oxo-1,2-dihydro-1,6-naphthyridin-3-yl)-4-chloro-2-fluorophenyl)-3-(3-fluorophenyl)urea]"
10 to 100,< 10,< 10,10 to 100,10 to 100,< 10,"CCn1c(=O)c(-c2cc(NC(=O)Nc3cccc4ccccc34)c(F)cc2Cl)cc2cnc(NC)cc21 [Example 6, 1-(4-chloro-5-(1-ethyl-7-(methylamino)-2-oxo-1,2-dihydro-1,6-naphthyridin-3-yl)-2-fluorophenyl)-3-(naphthalen-1-yl)urea]"
10 to 100,> 1000,10 to 100,10 to 100,< 10,10 to 100,"CCn1c(=O)c(-c2cc(NC(=O)Nc3cc(F)cc(F)c3)c(F)cc2Cl)cc2cnc(NC)cc21 [Example 55, 1-(4-chloro-5-(1-ethyl-7-(methylamino)-2-oxo-1,2-dihydro-1,6-naphthyridin-3-yl)-2-fluorophenyl)-3-(3,5-difluorophenyl)urea]"
10 to 100,10 to 100,10 to 100,10 to 100,10 to 100,10 to 100,"CCn1c(=O)c(-c2cc(NC(=O)Nc3csc4ccccc34)c(F)cc2C)cc2cnc(NC)cc21 [Example 59, 1-(benzo[b]thiophen-3-yl)-3-(5-(1-ethyl-7-(methylamino)-2-oxo-1,2-dihydro-1,6-naphthyridin-3-yl)-2-fluoro-4-methylphenyl)urea]"
10 to 100,10 to 100,10 to 100,10 to 100,< 10,< 10,"CCn1c(=O)c(-c2cc(NC(=O)Nc3ccccc3)c(F)cc2Cl)cc2cnc(NC(=O)N3CC(O)C3)cc21 [Example 81, N-(3-(2-chloro-4-fluoro-5-(3-phenylureido)phenyl)-1-ethyl-2-oxo-1,2-dihydro-1,6-naphthyridin-7-yl)-3-hydroxyazetidine-1-carboxamide]"
10 to 100,10 to 100,< 10,10 to 100,10 to 100,< 10,"CCn1c(=O)c(-c2cc(NC(=O)Nc3ccccc3)c(F)cc2Cl)cc2cnc(NC(=O)N(C)C)cc21 [Example 70, 3-(3-(2-chloro-4-fluoro-5-(3-phenylureido)phenyl)-1-ethyl-2-oxo-1,2-dihydro-1,6-naphthyridin-7-yl)-1,1-dimethylurea]"
10 to 100,100 to 1000,10 to 100,< 10,10 to 100,10 to 100,"CCn1c(=O)c(-c2cc(NC(=O)Nc3cccc(F)c3)c(F)cc2Cl)cc2cnc(NCCOC)cc21 [Example 28, 1-(4-chloro-5-(1-ethyl-7-(2-methoxyethylamino)-2-oxo-1,2-dihydro-1,6-naphthyridin-3-yl)-2-fluorophenyl)-3-(3-fluorophenyl)urea]"
10 to 100,10 to 100,< 10,< 10,< 10,< 10,"CCn1c(=O)c(-c2cc(NC(=O)Nc3cccc(F)c3)c(F)cc2Cl)cc2cnc(NC)cc21 [Example 24, 1-[4-chloro-5-(1-ethyl-7-methylamino-2-oxo-1,2-dihydro-[1,6]naphthyridin-3-yl)-2-fluoro-phenyl]-3-(3-fluoro-phenyl)-urea]"
100 to 1000,100 to 1000,10 to 100,10 to 100,10 to 100,< 10,"CCn1c(=O)c(-c2cc(NC(=O)Nc3ccccc3)c(F)cc2Br)cc2cnc(N)cc21 [Example 57, 1-(5-(7-amino-1-ethyl-2-oxo-1,2-dihydro-1,6-naphthyridin-3-yl)-4-bromo-2-fluorophenyl)-3-phenylurea]"
10 to 100,< 10,< 10,10 to 100,< 10,< 10,"CCn1c(=O)c(-c2cc(NC(=O)Nc3csc4ccccc34)c(F)cc2Cl)cc2cnc(NC)cc21 [Example 32, 1-(benzo[b]thiophen-3-yl)-3-(4-chloro-5-(1-ethyl-7-(methylamino)-2-oxo-1,2-dihydro-1,6-naphthyridin-3-yl)-2-fluorophenyl)urea]"
10 to 100,10 to 100,10 to 100,10 to 100,10 to 100,< 10,"CNc1cc2c(cn1)cc(-c1cc(NC(=O)Nc3ccccc3)c(F)cc1Cl)c(=O)n2C(C)C [Example 22, 1-(4-chloro-2-fluoro-5-(1-isopropyl-7-(methylamino)-2-oxo-1,2-dihydro-1,6-naphthyridin-3-yl)phenyl)-3-phenylurea]"
100 to 1000,> 1000,10 to 100,10 to 100,10 to 100,10 to 100,"CCn1c(=O)c(-c2cc(NC(=O)Nc3ccccc3)c(F)cc2C)cc2cnc(NC(=O)N(C)C)cc21 [Example 101, 3-(1-ethyl-3-(4-fluoro-2-methyl-5-(3-phenylureido)phenyl)-2-oxo-1,2-dihydro-1,6-naphthyridin-7-yl)-1,1-dimethylurea]"
10 to 100,10 to 100,10 to 100,10 to 100,10 to 100,10 to 100,"CCn1c(=O)c(-c2cc(NC(=O)Nc3ccccc3)c(F)cc2Cl)cc2cnc(NC(=O)OC)cc21 [Example 73, methyl (3-(2-chloro-4-fluoro-5-(3-phenylureido)phenyl)-1-ethyl-2-oxo-1,2-dihydro-1,6-naphthyridin-7-yl)carbamate]"
